Source: patent EP1799816B1, “NOVEL LACCASE ENZYME AND USE THEREOF” (AB Enzymes Oy, priority 2004, dated 2006)
Several values for one entry are separate records, joined by “and”; a condition that tells them apart may be missing. Identical values can stand only once. Like-named read-outs stand apart in the source and are kept apart here.

Columns and labels:
[1] = tested on: recombinant Thielavia arenaria TaLcc1 laccase (rTaLcc1); type: biochemical
Description: Table 2. Inhibition of the Thielavia wild type laccase.
The inhibition effect of different compounds on the activity of the recombinant TaLcc1 laccase was determined as described in Example 2. Table 7. Inhibition of the recombinant Thielavia arenaria TaLcc1 laccase (rTaLcc1) activity by various compounds.

[2] = Sodium hypochlorite bleaching of different types of denim, Wascator, colour of face side of denim; conditions: 25 ml/l 10 % NaOCl, 15 min, 40°C, pH 11.5 - 11.9
Description: Different types of demin were treated with a TaLcc1 laccase product from Trichoderma strain RF5597 and DeniLite II Base from Novozymes and the results obtained were compared to hypochlorite bleaching. All together 27 pieces of different kinds of denim (whole jeans), which had been previously washed with cellulase after desizing to different abrasion levels or had been only desized with ECOSTONE® A200 (60°C, 10 min), were collected for the test (Table 15). The jeans were made of Indigo dyed denim, except the English jeans contained Indigo dyed denim with sulphur bottom. Jeans were cut in such a way that pieces from the same pair of jeans could be used for all tests.
The sodium hypochlorite bleaching was performed with Electrolux's Wascator FOM 71 CLS washer extractor using denim obtained from the same jeans as in laccase treatments under conditions described in Table 17. Sodium hydroxide was added before adding 25 ml/l of 10 % sodium hypochlorite solution (Klorite Forte, Farmos Oy) to keep the pH above 10.5 during the treatment. After draining the bleach liquor, there was one 2 minutes rinsing step with the liquor ratio of 1:20 before dechlorinating with sodium thiosulphate. After dechlorinating the denim samples were rinsed 3 times for 2 minutes with the liquor ratio of 1:20. The fabrics were dried in a tumbler. Table 17. The process parameters used in the sodium hypochlorite bleaching and dechlorinating.
The bleaching effect was evaluated by measuring the colour as reflectance values as in Example 7. […] Different looks were obtained depending on the type of the denim and cellulase treatment used. "Sulphur-bottom type" denim was the most difficult to bleach. Table 18. Colour measurements of the face side of denim treated with TaLcc1 laccase preparation (RF5597). L* indicates lightness, -b* is the blue direction, +b* is the yellow direction.

[3] = tested on: Thielavia wild type laccase
[4] = substrate: COc1cc(C=NN=Cc2cc(OC)c(O)c(OC)c2)cc(OC)c1O; test: Kinetic parameters (Km, kcat, kcat/Km) on laccase substrates; type: biochemical, Melanocarpus albomyces; conditions: other: substrate Syringaldazin, 25°C, buffer unclear, comparison enzyme
Description: (§1) On syringaldazin and DMP 40 mM MES buffer, pH 6 and 25 mM succinate bluffer, All activity assays were carried out at 25°C. Kinetic parameters were estimated by a nonlinear regression curve fit. The values were compared to those of Melanocarpus albomyces MaL, laccase.

[5] = substrate: COc1cccc(OC)c1O; test: as above; type: biochemical, Melanocarpus albomyces; conditions: other: substrate DMP, 25°C, buffer unclear, comparison enzyme
Description: as §1

[6] = sample B1, Basic Jeans, Ecostone P1250
[7] = sample E1, English jeans (sulphur bottom), desized only
[8] = sample E2, English jeans (sulphur bottom), Ecostone NP2000
[9] = sample E3, English jeans (sulphur bottom), Rocksoft NCE-EA
[10] = sample E4, English jeans (sulphur bottom), Rocksoft NCE-2X
[11] = sample E5, English jeans (sulphur bottom), Ecostone L900
[12] = sample E6, English jeans (sulphur bottom), Ecostone L900
[13] = sample E7, English jeans (sulphur bottom), Ecostone L900
[14] = sample L1, Lee Cooper jeans, desized only
[15] = sample L2, Lee Cooper jeans, Ecostone L
[16] = sample L3, Lee Cooper jeans, Biotouch C29
[17] = sample L4, Lee Cooper jeans, Ecostone L
[18] = sample L5, Lee Cooper jeans, Indiage Max L
[19] = sample L6, Lee Cooper jeans, Indiage Super L
[20] = sample L7, Lee Cooper jeans, Ecostone CXP500 Exper.
[21] = sample L8, Lee Cooper jeans, Ecostone CXP experimental
[22] = sample L9, Lee Cooper jeans, Ecostone N400
[23] = sample T1, Tincan jeans, desized only
[24] = sample T2, Tincan jeans, Ecostone N400
[25] = sample T3, Tincan jeans, Ecostone L300
[26] = sample T4, Tincan jeans, Denimax 991S
[27] = sample W1, Warric jeans, desized only
[28] = sample W2, Warric jeans, Ecostone P4500
[29] = sample W3, Warric jeans, Indiage Max G
[30] = sample W4, Warric jeans, Ecostone NP2000
[31] = sample W5, Warric jeans, Ecostone L900
[32] = sample W6, Warric jeans, Denabraide MBL 65 E

## [N-]=[N+]=[N-].[Na+] [NaN3]
[1]
  Inhibition (%) of laccase rTaLcc1: 95%

## OCl [sodium hypochlorite]
[2]; [6]
  After laccase Treatment L*: 40.62
  After laccase Treatment b*: -17.37
  Increase of L*: 12.27
[2]; [7]
  After laccase Treatment L*: 21.91
  After laccase Treatment b*: -15.03
  Increase of L*: 5.15
[2]; [8]
  After laccase Treatment L*: 33.30
  After laccase Treatment b*: -16.43
  Increase of L*: 7.36
[2]; [9]
  After laccase Treatment L*: 34.13
  After laccase Treatment b*: -16.73
  Increase of L*: 9.40
[2]; [10]
  After laccase Treatment L*: 35.83
  After laccase Treatment b*: -16.86
  Increase of L*: 9.28
[2]; [11]
  After laccase Treatment L*: 33.85
  After laccase Treatment b*: -16.48
  Increase of L*: 9.28
[2]; [12]
  After laccase Treatment L*: 30.61
  After laccase Treatment b*: -16.65
  Increase of L*: 8.41
[2]; [13]
  After laccase Treatment L*: 32.36
  After laccase Treatment b*: -16.75
  Increase of L*: 9.62
[2]; [14]
  After laccase Treatment L*: 31.23
  After laccase Treatment b*: -20.83
  Increase of L*: 10.69
[2]; [15]
  After laccase Treatment L*: 44.11
  After laccase Treatment b*: -18.60
  Increase of L*: 12.97
[2]; [16]
  After laccase Treatment L*: 39.71
  After laccase Treatment b*: -19.67
  Increase of L*: 11.26
[2]; [17]
  After laccase Treatment L*: 40.63
  After laccase Treatment b*: -19.25
  Increase of L*: 11.48
[2]; [18]
  After laccase Treatment L*: 39.47
  After laccase Treatment b*: -19.48
  Increase of L*: 11.47
[2]; [19]
  After laccase Treatment L*: 41.50
  After laccase Treatment b*: -18.68
  Increase of L*: 12.42
[2]; [20]
  After laccase Treatment L*: 37.91
  After laccase Treatment b*: -19.85
  Increase of L*: 11.15
[2]; [21]
  After laccase Treatment L*: 40.74
  After laccase Treatment b*: -19.12
  Increase of L*: 11.98
[2]; [22]
  After laccase Treatment L*: 40.82
  After laccase Treatment b*: -18.82
  Increase of L*: 11.91
[2]; [23]
  After laccase Treatment L*: 33.97
  After laccase Treatment b*: -17.95
  Increase of L*: 8.95
[2]; [24]
  After laccase Treatment L*: 34.38
  After laccase Treatment b*: -18.22
  Increase of L*: 6.73
[2]; [25]
  After laccase Treatment L*: 40.33
  After laccase Treatment b*: -18.30
  Increase of L*: 11.24
[2]; [26]
  After laccase Treatment L*: 37.66
  After laccase Treatment b*: -18.58
  Increase of L*: 10.10
[2]; [27]
  After laccase Treatment L*: 27.75
  After laccase Treatment b*: -18.76
  Increase of L*: 10.17
[2]; [28]
  After laccase Treatment L*: 39.35
  After laccase Treatment b*: -17.39
  Increase of L*: 13.76
[2]; [29]
  After laccase Treatment L*: 41.11
  After laccase Treatment b*: -16.79
  Increase of L*: 12.99
[2]; [30]
  After laccase Treatment L*: 38.07
  After laccase Treatment b*: -17.33
  Increase of L*: 12.29
[2]; [31]
  After laccase Treatment L*: 37.12
  After laccase Treatment b*: -18.03
  Increase of L*: 13.40
[2]; [32]
  After laccase Treatment L*: 36.65
  After laccase Treatment b*: -17.95
  Increase of L*: 12.90

## [Cl-].[Na+] [NaCl]
[1]
  Inhibition (%) of laccase rTaLcc1: 0%
[3]; pH 4.5
  Inhibition(%) wt TaLcc1: 35% and 42%

## O=C(O)CN(CCN(CC(=O)O)CC(=O)O)CC(=O)O [EDTA]
[1]; inhibitor 10 mM, ABTS as substrate
  Inhibition (%) of laccase rTaLcc1: 5%
[3]; inhibitor 10 mM, 2 mM ABTS, 25 mM succinate buffer pH 4.5
  Inhibition(%) wt TaLcc1: 0%

B1: Melanocarpus albomyces laccase MaL (Melanocarpus albomyces) (protein)
chain: EPTCNTPSNRACWSDGFDINTDYEVSTPDTGVTQSYVFNLTEVDNWMGPDGVVKEKVMLINGNIMGPNIVANWGDTVEVTVINNLVTNGTSIHWHGIHQKDTNLHDGANGVTECPIPPKGGQRTYRWRARQYGTSWYHSHFSAQYGNGVVGTIQINGPASLPYDIDLGVFPITDYYYRAADDLVHFTQNNAPPFSDNVLINGTAVNPNTGEGQYANVTLTPGKRHRLRILNTSTENHFQVSLVNHTMTVIAADMVPVNAMTVDSLFLAVGQRYDVVIDASRAPDNYWFNVTFGGQAACGGSLNPHPAAIFHYAGAPGGLPTDEGTPPVDHQCLDTLDVRPVVPRSVPVNSFVKRPDNTLPVALDLTGTPLFVWKVNGSDINVDWGKPIIDYILTGNTSYPVSDNIVQVDAVDQWTYWLIENDPEGPFSLPHPMHLHGHDFLVLGRSPDVPAASQQRFVFDPAVDLARLNGDNPPRRDTTMLPAGGWLLLAFRTDNPGAWLFHCHIAWHVSGGLSVDFLERPADLRQRISQEDEDDFNRVCDEWRAYWPTNPYPKIDSGL
[4]
  Km: 1.3 µM
  kcat: 78.5 s⁻¹
  kcat/Km: 6e+07 M⁻¹ s⁻¹
[5]
  Km: 5 µM
  kcat: 69.33 s⁻¹
  kcat/Km: 1.35e+07 M⁻¹ s⁻¹
